Laboratory results: US20230115176A1 (Ra Pharmaceuticals, Inc., priority 2019, published 2023)
Converted amounts (≈) assume the structure as drawn.

What was measured:
[1] = Permeability assay, unidirectional transport, Papp (Example 30, Table 34); format: in vitro ADME, canine; conditions: dog, pH 7.4; MDCK-WT cell monolayers, A-to-B, 3 μM test compound, 37° C., duplicate determinations
Description: (§1) Permeability assays were carried out to provide a preliminary indication of suitability for oral dosing and compound permeability across the blood brain barrier. Unidirectional and bidirectional compound transport across Madin Darby canine kidney (MDCK) cell monolayers was assessed. For unidirectional transport assessment, transport across MDCK wild type (MDCK-WT) cell monolayers was assessed. For bidirectional transport, transport across MDCK-MDR1 cell monolayers was assessed. MDCK-MDR1 cells express the MDR1 gene encoding the P-glycoprotein (P-gp) efflux protein.
(§2) MDCK-WT and MDCK-MDR1 cells were plated onto permeable polycarbonate supports in 12-well Costar transwell plates and allowed to grow and differentiate for 3 days. After 3 days in culture, the culture medium (DMEM supplemented with 10% FBS) was removed from both sides of the transwell inserts and cells were rinsed with warm HBSS. After the rinse step, the chambers were filled with warm transport buffer (HBSS containing 10 mM HEPES, 0.25% BSA, pH 7.4) and the plates were pre-incubated at 37° C. for 30 minutes prior to TEER (Trans Epithelial Electric Resistance) measurements.
(§3) The buffer in the donor chamber (apical side for A-to-B assay, basolateral side for B-to-A assay) was removed and replaced with the working solution (3 μM test compound and 10 μM for control compounds in transport buffer). The plates were then placed at 37° C. under light agitation. At designated time points (30, 60 and 90 min), an aliquot of transport buffer from the receiver chamber was removed and replenished with fresh transport buffer. Samples were quenched with ice-cold ACN containing internal standard and then centrifuged to pellet protein. Resulting supernatants were further diluted with 50/50 ACN/H2O (Atenolol diluted in just water) and submitted for LC-MS/MS analysis. Apparent permeability (Pap) values were calculated from duplicate determinations. Atenolol and propranolol were tested as low and […] permeability references.
Papp values indicate extent of compound permeation across monolayers.

[2] = system: P-glycoprotein (P-gp, MDR1); experiment: Permeability assay, bidirectional transport, efflux ratio (Example 30, Table 34); format: in vitro ADME, canine; conditions: dog, MDCK-MDR1, pH 7.4; read-out: MDCK-MDR efflux ratio
Description: as §1, §2, §3
Efflux ratios were calculated for bidirectional transport across MDCK-MDR1 cell monolayers as an indication of compound efflux by P-gp. The efflux ratio is calculated using the ratio of mean Papp values for B to A transport to mean Papp values for A to B transport [Papp(BA)/Papp(AB)].

[3] = Kinetic solubility in PBS pH 7.4, HPLC-UV (Example 21, Table 27); format: physicochemical; conditions: phosphate buffered saline, aqueous buffer, kinetic from dmso stock, 0.5 M PBS, shaken minimum 24 h at approximately 25° C., HPLC-UV 270 nm
Summary of the method: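 10 mM DMSO stock diluted into 0.05 M PBS pH 7.4 (5% DMSO final), in triplicate, shaken ≥24 h at ~25 °C, then filtered by centrifugation. Supernatant concentration by HPLC-UV at 270 nm against external DMSO standards (15.6–500.0 μM).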

[4] = biological target: T1, human C5 complement protein (Homo sapiens, UniProt P01031); experiment: Surface plasmon resonance (SPR), immobilized human C5, 37° C. (Example 18, Table 24); format: binding; conditions: lowest value obtained where a range of concentrations was analyzed
T1 sequence (P01031 19-1676): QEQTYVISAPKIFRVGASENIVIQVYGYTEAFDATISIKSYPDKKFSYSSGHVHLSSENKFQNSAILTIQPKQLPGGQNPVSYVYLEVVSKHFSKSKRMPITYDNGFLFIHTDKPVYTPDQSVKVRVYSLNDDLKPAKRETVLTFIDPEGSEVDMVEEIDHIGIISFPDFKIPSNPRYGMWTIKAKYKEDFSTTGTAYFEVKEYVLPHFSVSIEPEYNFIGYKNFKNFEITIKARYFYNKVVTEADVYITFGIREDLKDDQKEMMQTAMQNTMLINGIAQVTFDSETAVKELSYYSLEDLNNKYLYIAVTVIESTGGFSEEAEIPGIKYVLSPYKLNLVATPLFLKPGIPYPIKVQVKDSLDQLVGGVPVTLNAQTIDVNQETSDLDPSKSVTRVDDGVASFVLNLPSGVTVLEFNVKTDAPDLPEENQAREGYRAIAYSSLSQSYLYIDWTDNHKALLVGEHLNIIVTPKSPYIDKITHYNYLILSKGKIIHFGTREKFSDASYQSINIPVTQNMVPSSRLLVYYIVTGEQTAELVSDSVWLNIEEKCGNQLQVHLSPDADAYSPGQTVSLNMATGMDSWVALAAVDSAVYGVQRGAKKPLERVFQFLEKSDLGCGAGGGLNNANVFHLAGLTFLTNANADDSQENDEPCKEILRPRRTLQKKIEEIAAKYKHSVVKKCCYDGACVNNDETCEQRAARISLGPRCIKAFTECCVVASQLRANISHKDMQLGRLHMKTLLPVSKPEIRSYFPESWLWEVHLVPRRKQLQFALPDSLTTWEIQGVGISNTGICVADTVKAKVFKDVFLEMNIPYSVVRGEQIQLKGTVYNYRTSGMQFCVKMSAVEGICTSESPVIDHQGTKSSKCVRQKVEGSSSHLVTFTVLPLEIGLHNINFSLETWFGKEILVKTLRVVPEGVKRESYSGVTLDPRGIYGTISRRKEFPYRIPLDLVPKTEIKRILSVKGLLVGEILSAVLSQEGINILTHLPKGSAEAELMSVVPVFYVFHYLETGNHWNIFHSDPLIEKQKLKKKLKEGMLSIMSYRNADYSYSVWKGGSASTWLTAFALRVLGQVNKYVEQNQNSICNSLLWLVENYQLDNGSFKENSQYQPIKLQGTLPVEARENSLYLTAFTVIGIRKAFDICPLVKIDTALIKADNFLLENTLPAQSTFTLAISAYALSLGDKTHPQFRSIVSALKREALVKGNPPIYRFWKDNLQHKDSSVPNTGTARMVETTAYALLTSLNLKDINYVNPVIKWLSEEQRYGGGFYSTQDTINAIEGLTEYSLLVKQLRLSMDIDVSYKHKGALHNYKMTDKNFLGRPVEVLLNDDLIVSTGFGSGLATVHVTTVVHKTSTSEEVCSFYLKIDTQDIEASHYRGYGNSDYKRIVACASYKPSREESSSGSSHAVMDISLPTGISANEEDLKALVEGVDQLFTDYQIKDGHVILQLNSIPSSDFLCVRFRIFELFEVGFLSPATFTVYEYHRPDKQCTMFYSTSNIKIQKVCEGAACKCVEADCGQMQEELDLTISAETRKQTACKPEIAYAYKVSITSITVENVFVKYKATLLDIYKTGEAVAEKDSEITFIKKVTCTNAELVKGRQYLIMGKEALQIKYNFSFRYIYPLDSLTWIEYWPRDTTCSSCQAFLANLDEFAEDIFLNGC

[5] = biological target: T1, human C5 complement protein; experiment: Surface plasmon resonance (SPR), immobilized human C5, 37° C. (Example 23, Table 28); format: binding; conditions: lowest value obtained where a range of concentrations was analyzed (Table 28)
[6] = biological target: T2, Human C5 (Homo sapiens, UniProt P01031); experiment: Red blood cell (RBC) hemolysis assay, luminescent (Example 24, Table 29); format: cell-based; conditions: sheep EA cells, […] C5-depleted human serum, 0.5 nM human C5, 1 hour at 37° C., luminescence (Table 29)
T2 construct: purchased Complement Technology
T2 sequence (P01031 19-1676): as above
Description: (§4) Numbers in parenthesis following the compound number indicate alternate enantiomers (as distinguished by retention time during chromatographical separation).

[7] = biological target: T2, Human C5; experiment: Red blood cell (RBC) hemolysis assay, luminescent (Example 28, Table 32); format: cell-based; conditions: sheep EA cells, 1.5% C5-depleted human serum, 0.5 nM human C5, 1 hour at 37° C., luminescence (Table 32)
[8] = biological target: T1, human C5 complement protein; experiment: Surface plasmon resonance (SPR), immobilized human C5, 37° C. (Example 27, Table 31); format: binding; conditions: lowest value obtained where a range of concentrations was analyzed (Table 31)
[9] = biological target: T2, Human C5; experiment: Surface plasmon resonance (SPR), compounds on immobilized human C5 (Example 2, Table 5); format: binding; conditions: lowest value where a range of compound concentrations were analyzed
[10] = biological target: purified human C5 (Homo sapiens, UniProt P01031); experiment: Red blood cell hemolysis assay, optical, absorbance 412 nm (Example 3, Table 6); format: cell-based; conditions: antibody-sensitized sheep erythrocytes, 1.5% human C5 depleted sera, 0.5 nM human C5; average where replicates
Chain of purified human C5 (P01031 19-1676): as above
Description: Experiments were carried out using a red blood cell (RBC) hemolysis assay to assess compound inhibition of RBC lysis. […] The assay was carried out using 1.5% human C5 depleted sera and 0.5 nM purified human C5.
GVB++ buffer (Complement Technology, Tyler, Tex.) was heated at 37° C. for a minimum of 20 minutes. The human C5 depleted sera and purified human C5 were rapidly thawed at 37° C. and then stored on ice or wet ice, respectively. The compound stock (10 mM, DMSO) was serially diluted in 100% DMSO to obtain ten 6-fold dilutions before addition of GVB++. Sera dilution was prepared by adding 5 mL of GVB++ to a 15 mL conical tube, removing 600 μL of the GVB++ and adding 600 μL of the 100% sera. The tube was mixed by inverting three times. A volume of 25 μL of the diluted sera was added to each well so that the final concentration of sera in the well was 1.5%. C5 dilution was prepared by adding 5 mL of GVB++ to a 15 mL conical tube, removing 4 μL of the GVB++ and adding 4 μL of the C5 stock. The tube was mixed by inverting three times. A volume of 25 μL was added to each well so that the final amount of C5 was 0.5 nM in each well. The antibody-sensitized sheep erythrocytes (EAs) were centrifuged at 1,000× gravity at 22° C. for 3 minutes. The supernatant was pipetted off without disrupting the pellet. The pellet was then resuspended in GVB++ with the same volume removed. Resuspended EAs were mixed by gently inverting the tube.
Five controls were run on each plate: (1) EAs only=100 μL EAs+50 μL GVB++ with 4% DMSO+50 μL GVB++; (2) EA+Sera=100 μL EAs+50 μL GVB++ with 4% DMSO+25 μL Sera dilution+25 μL GVB++; (3) EA+C5=100 μL EAs+50 μL GVB++ with 4% DMSO+25 μL C5 dilution+25 μL GVB++; (4) EA+Sera+C5=100 μL EAs+50 μL GVB++ with 4% DMSO+25 μL Sera dilution+25 μL C5; (5) GVB++ Only=200 μL GVB++. Other wells included: GVB++ with 4% DMSO=20 μL DMSO+480 μL GVB++. All samples were analyzed in duplicate. The compound dose response curve was generated using samples prepared with 100 μL EA+50 μL compound dilution+25 μL C5 dilution+25 μL sera dilution.
Test plates were prepared by adding 100 μL of EAs, 50 μL of compound dilution, 25 μL of sera dilution, and 25 μL of C5 dilution to individual wells of a 96-well tissue culture-treated clear microtitre plate (USA Scientific, Ocala, Fla.) and resuspending by pipetting up and down three times. The samples were incubated at 37° C. for one hour. At the completion of the incubation, the plates were centrifuged at 1,000× gravity for 3 minutes. 100 μl of supernatant were transferred to a new plate and the absorbance was read at 412 nm. Data was fit with a log-logit formula producing a dose-response curve and IC50.
“IC50” refers to the half maximal inhibitory concentration, where the value is the concentration of the inhibitor needed to reduce red blood cell hemolysis by half. Where replicate analysis was conducted, average IC50 values are provided along with standard deviation (SD) values.

[11] = system: CD59-deficient RBCs from patients with paroxysmal nocturnal hemoglobinuria (PNH); experiment: Hemolysis inhibition with PNH patient cells, flow cytometry for CD59 and plate assay (Example 6); format: cell-based, human; conditions: FIG. 2
Description: Flow cytometry studies were carried out to assess the ability of compounds to inhibit hemolysis of CD59-deficient RBCs from patients with paroxysmal nocturnal hemoglobinuria (PNH). […] To induce hemolysis, donor-matched serum was acidified to pH 6.4 with HCl. Compounds, serum, and RBCs, 2.5% volume per volume (v/v), were incubated for 18 hours at 37° C. After incubation, cells were washed and re-suspended in 1 ml fluorescence-associated cell sorting (FACS) buffer (0.1% BSA IgG-free in PBS, 0.1% Sodium Azide). Then, anti-CD59 antibody conjugated with phycoerythrin was added at a final concentration of 0.25 μg/ml to 100 μl of cell suspension and incubated at 4° C. for 30 minutes. Cells were then washed twice with cold FACS buffer, re-suspended in FACS buffer and analyzed with a BD Accuri C6 Flow Cytometer (BD Biosciences, San Jose, Calif.) for CD59 levels. The level of CD59-positive cells was monitored as a measure of complement-mediated hemolysis of PNH type III cells. A negative control using non-acidified serum was used to establish a baseline of CD59 expression under non-hemolytic conditions (FIG. 1A).

[12] = Drug-Metabolism-and-Pharmacokinetics (DMPK), single IV and oral dose in rats (Example 5); conditions: rat, in vivo; fasted male Sprague Dawley rats, 1 mg/kg IV and 10 mg/kg PO, 5% DMSO: 20% HP-Beta-CD
Description: Single intravenous (IV) and oral dose (P0, per oral) administration of C5 inhibitors were carried out in rats. Rats were then analyzed for Drug-Metabolism-and-Pharmacokinetic (DMPK) properties, used to determine the pharmacokinetics and oral bioavailability of the C5 inhibitors.
SM0011 was formulated as a clear solution at 1 mg/mL in 5% DMSO: 20% HP-Beta-CD. Fasted male Sprague Dawley rats were dosed with the solution at 1 MPK (mg/kg) IV and 10 MPK (mg/kg) PO. Analysis of the DMPK properties of the compound were used to determine the bioavailability.

[13] = biological target: T2, Human C5; experiment: Hemolysis assay, luminescent, classical complement pathway (Example 4, Table 7); format: cell-based; conditions: sheep EA cells, 1.5% C5-depleted human serum, 0.5 nM human C5, luminescence readout
Description: as §4

Q: Which Papp A→B at 3 μM [1] does the source give for `CCCCCOc1cc(N2CCCN(Cc3ccnc4c3c(Cl)cn4CC(=O)N(C)CC#N)C2=O)ccc1OC` [CU0529] here?
A: Its Papp A→B at 3 μM is 17.1 ×10⁻⁶ cm/s.

Q: And the efflux ratio at 3 μM [2]?
A: Its efflux ratio at 3 μM is 75.

Q: What about the solubility kinetic [3] of the same compound?
A: The solubility kinetic was 50 µM (≈ 28.4 µg/mL).

Q: What about the Kd [4] of the same compound?
A: Its Kd is 0.322 nM.

Q: With `COc1cc(CC(=O)N(C)C)ccc1CN1CCCN(c2ccc(OC)c(OCCCC3CC3)c2)C1=O` [CU0555] as the compound, how does the Papp A→B at 3 μM [1] read?
A: Its Papp A→B at 3 μM is 23 ×10⁻⁶ cm/s.

Q: And the efflux ratio at 3 μM [2]?
A: Its efflux ratio at 3 μM is 15.

Q: And the Kd [4]?
A: Its Kd is 1.06 nM.

Q: Which results are given for `CCCCCOc1cc(N2CCCN(Cc3ccnc4c3c(Cl)cn4CC(=O)N(C)C)C2=O)ncc1OC` [CU0558]?
A: Papp A→B at 3 μM [1]: 25.2 ×10⁻⁶ cm/s; efflux ratio at 3 μM [2]: 9; solubility kinetic [3]: 271 µM (≈ 147 µg/mL); Kd [4]: 0.152 nM

Q: With `CCCCCOc1cc(N2CCCN(Cc3ccnc4c3c(Cl)cn4CC(=O)N3CCC3)C2=O)ccc1OC` [CU0560] as the compound, how does the Papp A→B at 3 μM [1] read?
A: The Papp A→B at 3 μM was 23 ×10⁻⁶ cm/s.

Q: What about the efflux ratio at 3 μM [2] of the same compound?
A: The efflux ratio at 3 μM was 23.

Q: What about the solubility kinetic [3] of the same compound?
A: The solubility kinetic was 31 µM (≈ 17.2 µg/mL).

Q: And the Kd [4]?
A: The Kd was 0.054 nM.

Q: Which Kd [5] does the source give for `CCCCCOc1cc(N2CC3(CC3)CN(Cc3ccccc3OC)C2=O)ccc1OC` [SC0064] here?
A: The Kd was 11.1 nM.

Q: What about the IC50 [6] of the same compound?
A: Its IC50 is 23.7 nM.

Q: Which results are given for `CCCCCOc1cc(N2CC3(COC3)CN(Cc3ccccc3OC)C2=O)ccc1OC` [SC0066]?
A: Kd [5]: 43.7 nM; IC50 [6]: 39.7 nM

Q: Which IC50 [7] does the source give for `COc1cc(CC(=O)N[C@@H]2CN(C)C[C@@H]2F)ccc1CN1C(=O)N(c2ccc(OC)c(OCCCC3CC3)c2)CC[C@@H]1C` [SC0109] here?
A: Its IC50 is 1.2 nM.

Q: What about the Papp A→B at 3 μM [1] of the same compound?
A: Its Papp A→B at 3 μM is 5.7 ×10⁻⁶ cm/s.

Q: And the efflux ratio at 3 μM [2]?
A: Its efflux ratio at 3 μM is 144.

Q: For `CCCCCOc1cc(N2CC[C@@H](C)N(Cc3cccc4c3c(Cl)cn4CC(=O)N(C)C)C2=O)ccc1OC` [SC0110], which IC50 [7] is on record?
A: The IC50 was 1.3 nM.

Q: And the Papp A→B at 3 μM [1]?
A: The Papp A→B at 3 μM was 15.3 ×10⁻⁶ cm/s.

Q: And the efflux ratio at 3 μM [2]?
A: The efflux ratio at 3 μM was 18.

Q: For `CCCCCOc1cc(N2CC[C@H](C)N(Cc3cccc4c3c(Cl)cn4CC(=O)N(C)C)C2=O)ccc1OC` [SC0112], which Kd [8] is on record?
A: The Kd was 0.28 nM.

Q: And the IC50 [7]?
A: Its IC50 is 1.3 nM.

Q: What about the Papp A→B at 3 μM [1] of the same compound?
A: The Papp A→B at 3 μM was 16.4 ×10⁻⁶ cm/s.

Q: And the efflux ratio at 3 μM [2]?
A: Its efflux ratio at 3 μM is 12.

Q: And the solubility kinetic [3]?
A: The solubility kinetic was 13 µM (≈ 7.22 µg/mL).

Q: With `CCCCCOc1cc(N2CC[C@H](C)N(Cc3ccnc4c3c(Cl)cn4CC(=O)N3CC(O)C3)C2=O)ccc1OC` [SC0120] as the compound, how does the Kd [8] read?
A: The Kd was 0.01 nM.

Q: What about the IC50 [7] of the same compound?
A: Its IC50 is 1.5 nM.

Q: What about the Papp A→B at 3 μM [1] of the same compound?
A: The Papp A→B at 3 μM was 6.6 ×10⁻⁶ cm/s.

Q: What about the efflux ratio at 3 μM [2] of the same compound?
A: The efflux ratio at 3 μM was 98.

Q: And the solubility kinetic [3]?
A: Its solubility kinetic is 96 µM (≈ 56.1 µg/mL).

Q: With `COc1ccc(NC(=O)NC(CO)c2ccccc2O)cc1OCCCC(C)C` (stereo not drawn) [SM0001, 1-(2-hydroxy-1-(2-hydroxyphenyl)ethyl)-3-(4-methoxy-3-((4-methylpentyl)oxy)phenyl)urea] as the compound, how does the Kd [9] read?
A: The Kd was 49 nM.

Q: And the IC50 [10]?
A: Its IC50 is 20.9 nM.

Q: What about the “inhibition of PNH patient hemolysis with increasing concentrations” value [11] of the same compound?
A: The value was “dose-dependent manner”.

Q: With `COc1ccc(NC(=O)N[C@@H](CO)c2ccccc2)cc1OCCCC(C)C` [SM0011] as the compound, how does the Kd [9] read?
A: The Kd was 157 nM.

Q: And the bioavailability [12]?
A: Its bioavailability is roughly 30%.

Q: What about the IC50 [10] of the same compound?
A: The IC50 was 266 nM.

Q: What about the IC50 [13] of the same compound?
A: The IC50 was 60.2 nM.
